{"source": "patent US20110021588A1", "about": "“SUBLINGUAL DEXMEDITOMIDINE COMPOSITIONS AND METHODS OF USE THEREOF” (RECRO PHARMA, INC., priority 2009, published 2011)", "key": {"[1]": {"settings": "human, cited from earlier work"}, "[2]": {"settings": "human, cited from earlier work", "remark": "listed apart in the source"}, "in vivo": {"assay": "in vivo", "settings": "male, Beagle, dog", "description": "The purpose of the study was to assess the pharmacokinetics and absolute bioavailability of dexmedetomidine in a group of five Beagle dogs (males, each aged 5 to 8 months and weighing between 7.5 and 9.2 kg) following sublingual spray administration of the different formulations described in Tables 1 and 2.\nFor sublingual administration, a spray application was administered by one depression of a pump device into the oral cavity under the tongue. In order to ensure proper pump priming, two actuations were performed prior to dosing. Following dose administration, serial blood samples were collected form each subject animal by venipuncture of a jugular vein as follows: 0 (predose), 0.083, 0.167, 0.25, 0.33, 0.5, 1, 2, and 6 hours post-sublingual dose. […] Blood samples were collected in vacutainer tubes containing K2EDTA as anticoagulant, and derived plasma samples were stored frozen until analyzed."}}, "note": "Like-named read-outs stand apart in the source and are kept apart here.", "data": [{"compound": "Cc1cccc([C@H](C)c2cnc[nH]2)c1C", "note": "[dexmedetomidine, 5-[(1S)-1-(2,3-dimethylphenyl)ethyl]-1H-imidazole]", "values": [{"measurement": "apparent elimination half-life", "setting": "[1]; buccal", "result": 1.9, "unit": "h"}, {"measurement": "time of maximum concentration", "setting": "[1]; buccal", "result": "approximately 1.5 h"}, {"measurement": "mean buccal bioavailability", "setting": "[1]; solution held in mouth without swallowing", "result": 81.8, "unit": "%"}, {"measurement": "absolute bioavailability", "setting": "[2]; i.m. administration", "result": 73, "unit": "%"}, {"measurement": "time to maximum concentration in blood", "setting": "[2]; i.m. administration", "result": "1.6 to 1.7", "unit": "h"}, {"measurement": "mean elimination half-life", "setting": "[2]; i.m. dosing", "result": 3, "unit": "h"}, {"measurement": "mean elimination half-life", "setting": "[2]; i.v. dosing", "result": 1.5, "unit": "h"}, {"measurement": "absolute bioavailability", "setting": "[2]; transdermal administration", "result": 88, "unit": "%"}, {"measurement": "mean elimination half-life", "setting": "[2]; transdermal administration", "result": 5.6, "unit": "h"}, {"measurement": "time to maximum concentration in blood", "setting": "[2]; transdermal administration", "result": 6, "unit": "h"}, {"measurement": "Cmax", "setting": "in vivo", "result": 0.914, "unit": "ng/mL"}, {"measurement": "Tmax", "setting": "in vivo", "result": 0.333, "unit": "h"}]}]}
